Target: T1, human vasopressin V1a receptor subtype (Homo sapiens, UniProt P37288)
T1 construct: host or cells: CHO cells (pZeoSV vector for the Thibonnier line)
Experiment: Vasopressin binding in Chinese Hamster Ovary cell membranes expressing human vasopressin V1a subtype receptors
Details: 100 nM, CHO cell membranes, [3H]Manning ligand, values without parentheses
Experimental: Vasopressin Binding in Chinese Hamster Ovary Cell Membranes Expressing Human Vasopressin V1a Subtype Receptors
The trypsin is removed by aspiration and the cells dislodged by tapping. Cell Culture medium (e.g. 30 mL for 1:30 split) is immediately added and mixed well to inactivate trypsin. 1 mL of detached cells is added to new culture flasks containing fresh cell culture medium (e.g., into 25 mL per T-150 flask), and mixed gently. The cells are incubated at 37° C. in 5% CO2. The medium is changed at 3 to 4 days interval (or as appropriate). […] All steps are done under sterile conditions. B. Membrane Preparation: The cells are washed twice gently with Hank's Balanced Salt solution (e.g,. use 10 mL per T-150 flask). […] The contents are transferred to centrifuge tubes (50 mL) kept in an ice bath. All subsequent steps are done at 4° C. The tubes are centrifuged at 300×g for 15 min (1380 rpm on SORVAL, Model RT6000D, using the rotor for 50 mL tubes). The supernatant is discarded and the cells suspended in homogenizing buffer(10 mM Tris-HCl containing 0.25 M sucrose and 1 mM EDTA, pH 7.4) ensuring that the volume of the buffer is about ten times the volume of the cell pellet. The cells are pooled into a centrifuge tube (50 mL) and homogenized with a Polytron at setting 6 for 10 sec. The homogenate is transferred into a Potter-Elvjehm homogenizer and homogenized with 3 strokes. The homogenate is centrifuged at 1500×g for 10 min at 4° C. (3100 rpm using SORVAL, model RT6000D, using the rotor for 50 mL tubes). The pellet is discarded. The supernatant is centrifuged at 100,000×g for 60 min. at 4° C. (Beckman L8-80M ultracentrifuge; spin at 37,500 rpm with rotor type 70 Ti for 50 mL tubes; 38,000 rpm with type 80Ti for 15 mL tubes; or 35,800 rpm with rotor type 45Ti). The supernantant is discarded and the pellet suspended in 3 to 4 mL of Tris buffer (50 mM TRIS-HCl, pH 7.4). The protein content is estimated by the Bradford or Lowry method. The volume of the membrane suspension is adjusted with the membrane buffer (50 mM Tris-HCl containing 0.1% BSA and 0.1 mM PMSF) to give 3.0 mg/mL (or as appropriate) of protein. The membranes are aliquoted and stored at −70° C. C. Radioligand Binding Assay: In wells of a 96-well format microtiter plate, is added 90, 110 or 130 μL (to make up a final volume of 200 μL) of assay buffer containing 50 mM of Tris-HCl (pH 7.4), BSA (heat inactivated, protease-free), […], 1 mg % aprotinin, 1 mg % leupeptin, 2 mg % 1,10-phenanthroline, 10 mg % trypsin inhibitor, and 0.1 mM PMSF. The inhibitors are added on the day of the experiment. The components are mixed at room temperature, and then kept in ice bath following adjustment of the pH to 7.4. […] 20 μL of 50% DMSO is added for Manning and other peptide ligands and the assay buffer volume is adjusted accordingly. To each well is added 50 μL of frozen membrane suspension thawed immediately prior to use and diluted in the assay buffer to the required concentration (equivalent to 25 to 50 μg of protein/well as needed). 20 μL of 8 nM [^3H]Manning ligand in the assay buffer, prepared just before use, is added, and incubated at room temperature for 60 min. shaking the plate on a mechanical shaker for the first 15 min. The incubation is stopped by rapid filtration of the plate contents followed by wash with ice-cold buffer (50 mM Tris-HCl, pH 7.4) using a cell harvester (Tomtek and Printed filtermat-B filter paper). The filter paper is thoroughly dried (7–12 min. in a microwave oven) and impregnated with MeltiLex B/H melt-on scintillation wax sheets and the radioactivity counted in a betaplate scintillation counter.
Binding data is either reported as percent inhibition at a certain concentration or if an IC50 was calculated, as a nanomolar concentration.

T1 sequence (P37288 whole entry): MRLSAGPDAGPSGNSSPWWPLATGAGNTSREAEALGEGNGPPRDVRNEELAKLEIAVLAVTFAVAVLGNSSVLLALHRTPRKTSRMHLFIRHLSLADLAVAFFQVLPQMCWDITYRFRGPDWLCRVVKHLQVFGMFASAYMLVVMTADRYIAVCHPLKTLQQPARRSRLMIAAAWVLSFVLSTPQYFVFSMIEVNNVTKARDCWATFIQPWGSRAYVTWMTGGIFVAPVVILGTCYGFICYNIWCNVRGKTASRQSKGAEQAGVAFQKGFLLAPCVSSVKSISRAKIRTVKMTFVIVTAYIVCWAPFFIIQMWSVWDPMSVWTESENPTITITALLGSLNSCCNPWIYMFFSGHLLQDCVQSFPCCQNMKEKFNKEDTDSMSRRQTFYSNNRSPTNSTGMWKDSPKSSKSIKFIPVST

| Compound | inhibition at 0.1 µM [%] | V1a % inhibition @ 100 nM [%] |
| --- | --- | --- |
| O=C(NCCCn1ccnc1)c1ccc2n1Cc1ccccc1N(C(=O)c1ccc(-c3cccc4ccccc34)cc1Cl)C2 [Example 134, 10-[2-Chloro-4-(1-naphthyl)benzoyl]-N-[3-(1H-imidazol-1-yl)propyl]-10,11-dihydro-5H-pyrrolo[2,1-c][1,4]benzodiazepine-3-carboxamide] | 5 |  |
| COc1ccccc1-c1ccc(C(=O)N2Cc3ccc(C(=O)N4CCC(N5CCCCC5)CC4)n3Cc3ccccc32)cc1C [Example 112, {10-[(2-Methyl-2′-methoxy[1,1′-biphenyl]-4-yl)carbonyl]-10,11-dihydro-5H-pyrrolo[2,1-c][1,4]benzodiazepin-3-yl}[4-(1-piperidinyl)-1-piperidinyl]methanone] | 8 |  |
| COc1ccccc1-c1ccc(C(=O)N2Cc3ccc(C(=O)NCCN4CCCCC4)n3Cc3ccccc32)cc1 [Example 152, 10-[(2′-Methoxy[1,1′-biphenyl]-4-yl)carbonyl]-N-[2-(1-piperidinyl)ethyl]-10,11-dihydro-5H-pyrrolo[2,1-c][1,4]benzodiazepine-3-carboxamide] | 23 |  |
| COc1cc(C(=O)N2Cc3ccc(C(=O)NCCCn4ccnc4)n3Cc3ccccc32)ccc1-c1ccccc1C [Example 128, N-[3-(1H-Imidazol-1-yl)propyl]-10-[(2-methoxy-2′-methyl[1,1′-biphenyl]-4-yl)carbonyl]-10,11-dihydro-5H-pyrrolo[2,1-c][1,4]benzodiazepine-3-carboxamide] | 18 |  |
| Cc1ccccc1-c1ccc(C(=O)N2Cc3ccc(C(=O)N4CCC[C@H]4CN4CCCC4)n3Cc3ccccc32)cc1C [Example 260, {10-[(2,2′-Dimethyl[1,1′-biphenyl]-4-yl)carbonyl]-10,11-dihydro-5H-pyrrolo[2,1-c][1,4]benzodiazepin-3-yl}[(2S)-2-(1-pyrrolidinylmethyl)pyrrolidinyl]methanone] |  | 55 |
| COC(=O)c1ccc2c(c1)N(C(=O)c1ccc(-c3ccccc3C(F)(F)F)c(C)c1)Cc1cccn1C2 [Example 26, Methyl 10-{[2-methyl-2′-trifluoromethyl-[1,1′-biphenyl]-4-yl]carbonyl}-10,11-dihydro-5H-pyrrolo[2,1-c][1.4]benzodiazepine-8-carboxylate] |  | −3 |
| COc1ccccc1-c1ccc(C(=O)N2Cc3ccc(C(=O)NCCCn4ccnc4)n3Cc3ccccc32)cc1C [Example 123, N-[3-(1H-Imidazol-1-yl)propyl]-10-[(2′-methoxy-2-methyl[1,1′-biphenyl]-4-yl)carbonyl]-10,11-dihydro-5H-pyrrolo[2,1-c][1,4]benzodiazepine-3-carboxamide] | 9 |  |
| COc1ccccc1-c1ccc(C(=O)N2Cc3ccc(C(=O)N4CCC[C@H]4CN4CCCC4)n3Cc3ccccc32)cc1 [Example 265, {10-[(2′-Methoxy[1,1′-biphenyl]-4-yl)carbonyl]-10,11-dihydro-5H-pyrrolo[2,1-c][1,4]benzodiazepin-3-yl}[(2S)-2-(1-pyrrolidinylmethyl)pyrrolidinyl]methanone] |  | 31 |
| COc1cc(C(=O)N2Cc3ccc(C(=O)N4CCC[C@H]4CN4CCCC4)n3Cc3ccccc32)ccc1-c1ccccc1C [Example 266, {10-[(2-Methoxy-2′-methyl[1,1′-biphenyl]-4-yl)carbonyl]-10,11-dihydro-5H-pyrrolo[2,1-c][1,4]benzodiazepin-3-yl}[(2S)-2-(1-pyrrolidinylmethyl)pyrrolidinyl]methanone] |  | 49 |
| COc1cccc(-c2cc(OC)c(C(=O)N3Cc4ccc(C(=O)N5CCC(N6CCCCC6)CC5)n4Cc4ccccc43)cc2Cl)c1 [Example 117, {10-[(6-Chloro-3-methoxy-3′-methoxy[1,1′-biphenyl]-4-yl)carbonyl]-10,11-dihydro-5H-pyrrolo[2,1-c][1,4]benzodiazepin-3-yl}[4-(1-piperidinyl)-1-piperidinyl]methanone] | -3 |  |
| COc1cc2c(cc1OC)N(C(=O)c1ccc(-c3ccccc3C(F)(F)F)c(C)c1)Cc1ccc(C(=O)N(C)CCCN(C)C)n1C2.Cl [Example 13, N-Methyl-[N-(3-dimethylamino)propyl]-7,8-dimethoxy-10-{[2-methyl-2′-(trifluoromethyl)[1,1′-biphenyl]-4-yl]carbonyl}-10,11-dihydro-5H-pyrrolo[2,1-c][1,4]benzodiazepine-3-carboxamide hydrochloride salt] |  | 4 |
| CN(C)CCCN(C)C(=O)c1ccc2n1Cc1ccccc1N(C(=O)c1ccc(-c3cccc4ccccc34)cc1Cl)C2 [Example 109, 10-[2-Chloro-4-(1-naphthyl)benzoyl]-N-[3-(dimethylamino)propyl]-N-methyl-10,11-dihydro-5H-pyrrolo[2,1-c][1,4]benzodiazepine-3-carboxamide] | 9 |  |
| Cc1ccccc1-c1ccc(C(=O)N2Cc3ccc(C(=O)N4CCC(N5CCCCC5)CC4)n3Cc3ccccc32)cc1C [Example 113, {10-[(2-Methyl-2′-methyl[1,1′-biphenyl]-4-yl)carbonyl]-10,11-dihydro-5H-pyrrolo[2,1-c][1,4]benzodiazepin-3-yl}[4-(1-piperidinyl)-1-piperidinyl]methanone] | 45 |  |
| COc1cccc(-c2ccc(C(=O)N3Cc4ccc(C(=O)N5CCN(CCN(C)C)CC5)n4Cc4ccccc43)cc2C)c1 [Example 199, {4-[2-(Dimethylamino)ethyl]-1-piperazinyl{}10-[(3′-methoxy-2-methyl[1,1′-biphenyl]-4-yl)carbonyl]-10,11-dihydro-5H-pyrrolo[2,1-c][1,4]benzodiazepin-3-yl}methanone] |  | 23 |
| COc1cc(C(=O)N2Cc3ccc(C(=O)N4CCC(N5CCCC5)CC4)n3Cc3ccccc32)ccc1-c1ccccc1C [Example 142, {10-[(2-Methoxy-2′-methyl[1,1′-biphenyl]-4-yl)carbonyl]-10,11-dihydro-5H-pyrrolo[2,1-c][1,4]benzodiazepin-3-yl}[4-(1-pyrrolidinyl)-1-piperidinyl]methanone] | 46 |  |
| COc1cc(C(=O)N2Cc3ccc(C(=O)N4CCC(N5CCCCC5)CC4)n3Cc3ccccc32)ccc1-c1cccc2ccccc12 [Example 118, {10-[3-Methoxy-4-(1-naphthyl)-benzoyl]-10,11-dihydro-5H-pyrrolo[2,1-c][1,4]benzodiazepin-3-yl}[4-(1-piperidinyl)-1-piperidinyl]methanone] | 14 |  |
| COc1ccccc1-c1ccc(C(=O)N2Cc3ccc(C(=O)N4CCC[C@H]4CN4CCCC4)n3Cc3ccccc32)cc1C [Example 259, {10-[(2′-Methoxy-2-methyl[1,1′-biphenyl]-4-yl)carbonyl]-10,11-dihydro-5H-pyrrolo[2,1-c][1,4]benzodiazepin-3-yl}[(2S)-2-(1-pyrrolidinylmethyl)pyrrolidinyl]methanone] |  | 21 |
| COc1cccc(-c2ccc(C(=O)N3Cc4ccc(C(=O)N5CCC(N6CCCC6)CC5)n4Cc4ccccc43)cc2OC)c1 [Example 146, {10-[(2,3′-Dimethoxy[1,1′-biphenyl]-4-yl)carbonyl]-10,11-dihydro-5H-pyrrolo[2,1-c][1,4]benzodiazepin-3-yl}[4-(1-pyrrolidinyl)-1-piperidinyl]methanone] | 37 |  |
| COc1ccccc1-c1ccc(C(=O)N2Cc3ccc(C(=O)N4CCC(N5CCCC5)CC4)n3Cc3ccccc32)cc1 [Example 140, {10-[(2′-Methoxy[1,1′-biphenyl]-4-yl)carbonyl]-10,11-dihydro-5H-pyrrolo[2,1-c][1,4]benzodiazepin-3-yl}[4-(1-pyrrolidinyl)-1-piperidinyl]methanone] | 24 |  |
